Measured values from patent US5604213A, “17-substituted steroids useful in cancer treatment” (priority 1992, dated 1997).

Legend:
17α-hydroxylase = target: T1, 17α-hydroxylase (Homo sapiens, UniProt P05093); assay: Determination of 17α-hydroxylase (human testicular microsomes, 3H-progesterone); type: biochemical; settings: for concentration required to achieve 50% inhibition of hydroxylase, versus the 3-pyridyl (in words): compared with 3-pyridyl
T1 construct: Human testes were obtained from previously untreated patients undergoing orchidectomy for prostatic cancer; from tissue; host or cells: human testes, microsomes
T1 sequence (P05093 1-508): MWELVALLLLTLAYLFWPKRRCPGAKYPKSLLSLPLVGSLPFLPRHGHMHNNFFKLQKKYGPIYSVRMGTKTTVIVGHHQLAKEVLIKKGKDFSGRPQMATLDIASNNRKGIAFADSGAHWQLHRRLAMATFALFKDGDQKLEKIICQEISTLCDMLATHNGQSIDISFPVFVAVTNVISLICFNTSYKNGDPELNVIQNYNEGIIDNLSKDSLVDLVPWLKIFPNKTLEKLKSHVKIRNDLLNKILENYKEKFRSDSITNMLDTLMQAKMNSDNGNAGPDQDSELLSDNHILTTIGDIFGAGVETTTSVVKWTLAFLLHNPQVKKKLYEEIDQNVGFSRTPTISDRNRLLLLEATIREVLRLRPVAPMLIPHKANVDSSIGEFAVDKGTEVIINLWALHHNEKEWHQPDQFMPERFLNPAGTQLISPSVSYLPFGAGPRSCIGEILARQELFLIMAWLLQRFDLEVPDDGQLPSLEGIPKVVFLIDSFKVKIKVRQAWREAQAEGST
Method: Human testes were obtained from previously untreated patients undergoing orchidectomy for prostatic cancer. The testes were decapsulated and stored in liquid nitrogen until use. A microsomal preparation was prepared essentially as described by S. E. Barrie et al., J. Steroid Biochem. 6, 1191-5, (1989). The material was then thawed, finely chopped, and homogenised in 0.25M sucrose (5 ml/g wet weight) using a Potter homogeniser. The homogenate was centrifuged at 12000 g for 30 min, and then the microsomes were pelleted by spinning the supernatant at 100,000 g for 1 hr. The pellet was washed by being resuspended in 0.25M sucrose and repelleted. The microsomal pellet was then resuspended in 50 mM sodium phosphate pH 7.4/glycerol (3/1 v/v) and stored in aliquots in liquid nitrogen.
(§2) The basic assay mixture was EDTA (0.2 mM), dithiothreitol (DTT; 0.1 mM), NADPH (0.25 mM), glucose 6-phosphate dehydrogenase (G6PDH; 6.25 μg/ml), MgCl2 (1 mM), glucose 6-phosphate (G6P; 10 mM) and the substrate, 3H-progesterone (3 μM) in sodium phosphate (50 mm), pH 7.4. The compounds under test were dissolved in 50% DMSO and the final concentrations of ethanol and DMSO were 1% each. The assay reaction was carded out for 1 hour and was terminated by the addition of 2 vols. of methanol-acetonitrile (2:1) containing approx. 100 μM unlabelled progesterone, 17α-hydroxyprogesterone, androstenedione, testosterone, and 16α-hydroxyprogesterone.
The separation of the steroids by HPLC was carried out using an "Uptight" guard column packed with 40-63 μm Nucleosil C18 and a 10 cm main column packed with 5 μm Nucleosil C18 and 60% methanol as eluant. The radioactivity in the peaks of interest was monitored on-line by mixing the HPLC effluent 1:1 with Ecoscint A (National Diagnostics) scintillation fluid, containing 25% acetonitrile, and passing the mixture through a Berthold LB506C radiochemical monitor. The hydroxylase activity was measured as the production of 17α-hydroxyprogesterone, androstenedione and testosterone.
The enzyme activity was measured in the presence of at least 4 concentrations of each compound. The data were for the 4-pyridyl and 2-picolyl compounds of Table 1 fitted by linear regression to the Dixon equation (M. Dixon, E.C. Webb, Enzymes, 2nd ed., Academic Press, New York, 1964). Data for all the other compounds were fitted by non-linear regression to the median effect equation of Chou, J. Theoret.

C17-C20 lyase = target: T2, C17-C20 lyase (Homo sapiens, UniProt P05093); assay: Determination of C17-C20 lyase (human testicular microsomes, 3H-17α-hydroxyprogesterone); type: biochemical; settings: for concentration required to achieve 50% inhibition of lyase, versus the 3-pyridyl (in words): compared with 3-pyridyl
T2 construct: Human testes were obtained from previously untreated patients undergoing orchidectomy for prostatic cancer; from tissue; host or cells: human testes, microsomes
T2 sequence (P05093 1-508): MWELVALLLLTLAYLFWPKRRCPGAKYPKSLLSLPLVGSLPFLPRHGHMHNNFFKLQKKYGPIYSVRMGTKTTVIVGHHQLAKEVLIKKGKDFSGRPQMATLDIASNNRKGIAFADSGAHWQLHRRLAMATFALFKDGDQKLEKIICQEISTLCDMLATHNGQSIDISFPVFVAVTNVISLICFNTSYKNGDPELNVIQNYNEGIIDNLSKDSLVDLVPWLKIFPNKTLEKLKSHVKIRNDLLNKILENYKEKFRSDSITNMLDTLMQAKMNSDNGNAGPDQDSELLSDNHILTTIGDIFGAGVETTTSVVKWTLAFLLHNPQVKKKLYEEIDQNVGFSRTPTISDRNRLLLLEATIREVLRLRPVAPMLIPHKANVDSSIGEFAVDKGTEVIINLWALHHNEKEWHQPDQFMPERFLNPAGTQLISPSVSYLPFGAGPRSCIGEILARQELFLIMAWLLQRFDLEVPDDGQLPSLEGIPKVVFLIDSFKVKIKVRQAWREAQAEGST
Method: The testes were decapsulated and stored in liquid nitrogen until use. […] The material was then thawed, finely chopped, and homogenised in 0.25M sucrose (5 ml/g wet weight) using a Potter homogeniser. The homogenate was centrifuged at 12000 g for 30 min, and then the microsomes were pelleted by spinning the supernatant at 100,000 g for 1 hr. The pellet was washed by being resuspended in 0.25M sucrose and repelleted. The microsomal pellet was then resuspended in 50 mM sodium phosphate pH 7.4/glycerol (3/1 v/v) and stored in aliquots in liquid nitrogen.
as §2
The HPLC separation used for the lyase involved a mini-re-column "Uptight Guard Column" packed with PELL-ODS (pellicular octadecyl silica) and a 10 cm. main column "Apex C18" column packed with 5μ APEX-CAT silica.
The eluant was 38:12:50 methanol:acetonitrile:water flowing at 1 ml/min. The effluent was mixed 1:1 with Ecoscint A containing 5% methanol and 5% acetonitrile and the radioactivity was measured directly by a Berthold LB506C radiochemical detector. The lyase activity was measured as the production of androstenedione and testosterone.
The enzyme activity was measured in the presence of at least 4 concentrations of each compound.

Male HWT mice = assay: In vivo organ weight test in mice; settings: for Mean weight ± standard error, Adrenals / Mean weight ± standard error, Kidneys / Mean weight ± standard error, Seminal Vesicles / Mean weight ± standard error, Prostate / Mean weight ± standard error, Testes: 2 weeks
Method: (§1) Male HWT mice, 12 weeks old, were treated daily for 2 weeks, with 5 animals per treatment group. The test compounds were the compound of Examples 1 and 4 (as representative of compounds of the invention having the pregenolone-like and progesterone-like skeletons respectively). Ketoconazole was also tested at three different doses. The test compounds were made up in 5% benzyl alcohol, 95% safflower oil, and were given i.p. In addition to an untreated control group of animals, there was also a solvent control group which received the same volume of liquid as the test group (5 ml/kg) but no test compound. All animals were sacrificed 24 hours after the last injection. Blood was collected by cardiac puncture into heparinized tubes, and the plasma used for RIA (radio immunoassay) of testosterone and luteinising hormone. The following organs were removed and weighed: adrenals, prostate, seminal vesicles, testes, kidneys. There was no significant body weight loss in any group of mice during the experiments.

luteinising hormone = assay: In vivo endocrine test in mice: plasma luteinising hormone (RIA); settings: 2 weeks
Method: as §1

[1] = design: species or system mice; settings: mouse, in vivo; for post mortem examination: appearance of organs / post mortem examination: deposits: ip
Method: as §1
In Ketoconazole-treated animals, adhesions were found in 2/5,2/5,4/5 of the low/middle/top dose groups. […] The livers were brown in the middle/top dose groups.

aromatase = target: T3, aromatase (Homo sapiens, UniProt P11511); type: biochemical; settings: human placental microsomes
T3 construct: using human placental microsomes; from tissue; host or cells: human placenta, microsomes
T3 sequence (P11511 1-503): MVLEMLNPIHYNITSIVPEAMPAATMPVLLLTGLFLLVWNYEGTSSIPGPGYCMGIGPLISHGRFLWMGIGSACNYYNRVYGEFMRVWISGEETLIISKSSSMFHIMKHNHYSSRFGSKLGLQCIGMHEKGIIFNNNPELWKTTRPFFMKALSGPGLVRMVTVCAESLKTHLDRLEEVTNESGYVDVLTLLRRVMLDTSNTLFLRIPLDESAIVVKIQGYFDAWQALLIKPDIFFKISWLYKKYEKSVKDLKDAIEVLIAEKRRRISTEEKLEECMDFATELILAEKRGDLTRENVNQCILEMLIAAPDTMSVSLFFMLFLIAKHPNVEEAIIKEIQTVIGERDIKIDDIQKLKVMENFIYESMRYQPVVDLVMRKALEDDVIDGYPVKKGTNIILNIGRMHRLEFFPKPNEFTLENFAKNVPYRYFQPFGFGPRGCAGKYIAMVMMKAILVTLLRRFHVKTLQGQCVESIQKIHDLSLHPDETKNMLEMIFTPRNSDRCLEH
Method: Aromatase activity was determined by the method of A. B. Foster et al., J. Med. Chem. 26, 50-54 (1983), using human placental microsomes.

testosterone = assay: In vivo endocrine test in mice: plasma testosterone (RIA); settings: 2 weeks
Method: Male HWT mice, 12 weeks old, were treated daily for 2 weeks, with 5 animals per treatment group. […] The test compounds were made up in 5% benzyl alcohol, 95% safflower oil, and were given i.p. In addition to an untreated control group of animals, there was also a solvent control group which received the same volume of liquid as the test group (5 ml/kg) but no test compound. All animals were sacrificed 24 hours after the last injection. Blood was collected by cardiac puncture into heparinized tubes, and the plasma used for RIA (radio immunoassay) of testosterone and luteinising hormone.

[2] = substrate: C[C@]12CCC(=O)C=C1CC[C@@H]1[C@@H]2CC[C@]2(C)C(=O)CC[C@@H]12; assay: cells, lysate or membranes named; settings: other: human placental microsomes used

CC12CCC(Oc3c(F)c(F)c(C(F)(F)F)c(F)c3F)CC1=CCC1C2CCC2(C)C(c3cccnc3)=CCC12 (stereo not shown)
inhibition of hydroxylase (in words) (17α-hydroxylase): very poor inhibitor | inhibition of lyase (in words) (C17-C20 lyase): very poor inhibitor

CC(=O)O[C@H]1CC[C@@]2(C)C(=CC[C@@H]3[C@@H]2CC[C@]2(C)C(c4cccnc4)=CC[C@@H]32)C1 [Ex. 1, 3β-Acetoxy-17-(3-pyridyl)androsta-5,16-diene]
Mean weight ± standard error, Adrenals (Male HWT mice; 0.02 mmol/kg/day i.p.): 4.3 ± 0.2 mg | Mean weight ± standard error, Kidneys (Male HWT mice; 0.02 mmol/kg/day i.p.): 604 ± 24 mg | Mean weight ± standard error, Adrenals (Male HWT mice; 0.1 mmol/kg/day i.p.): 4.0 ± 0.2 mg | Mean weight ± standard error, Kidneys (Male HWT mice; 0.1 mmol/kg/day i.p.): 500 ± 8 mg | Mean weight ± standard error, Adrenals (Male HWT mice; 0.5 mmol/kg/day i.p.): 4.7 ± 0.2 mg | Mean weight ± standard error, Kidneys (Male HWT mice; 0.5 mmol/kg/day i.p.): 449 ± 12 mg | LH (Mean ± standard error) (luteinising hormone; 0.02 mmol/kg/day i.p.): 3.4 ± 0.5 ng/mL | post mortem examination: appearance of organs [1]: all organs looked normal | post mortem examination: deposits [1]: oil/white deposits i.p.

C[C@]12CC[C@H](O)CC1=CC[C@@H]1[C@@H]2CC[C@]2(C)C(c3cccnc3)=CC[C@@H]12 [Ex. 2, 17-(3-Pyridyl)androsta-5,16-dien-3β-ol]
IC50 (aromatase): > 20000 nM

C[C@]12CCC(=O)C=C1CC[C@@H]1[C@@H]2CC[C@]2(C)C(c3cccnc3)=CC[C@@H]12 [Ex. 4, 17-(3-Pyridyl)androsta-4,16-dien-3-one]
Mean weight ± standard error, Adrenals (Male HWT mice; 0.02 mmol/kg/day i.p.): 4.7 ± 0.2 mg | Mean weight ± standard error, Seminal Vesicles (Male HWT mice; 0.02 mmol/kg/day i.p.): 108 ± 4 mg | Mean weight ± standard error, Adrenals (Male HWT mice; 0.1 mmol/kg/day i.p.): 4.6 ± 0.4 mg | Mean weight ± standard error, Seminal Vesicles (Male HWT mice; 0.1 mmol/kg/day i.p.): 61 ± 9 mg | Mean weight ± standard error, Adrenals (Male HWT mice; 0.5 mmol/kg/day i.p.): 4.9 ± 0.1 mg | Mean weight ± standard error, Seminal Vesicles (Male HWT mice; 0.5 mmol/kg/day i.p.): 25 ± 1 mg | Testosterone (Mean ± standard error) (testosterone; 0.02 mmol/kg/day i.p.): 4.5 ± 0.3 nM | Testosterone (Mean ± standard error) (testosterone; 0.1 mmol/kg/day i.p.): 3.5 ± 1.0 nM | Testosterone (Mean ± standard error) (testosterone; 0.5 mmol/kg/day i.p.): 0.4 ± 0.1 nM | post mortem examination: appearance of organs [1]: all organs looked normal | post mortem examination: deposits [1]: white deposits throughout the abdomen

C[C@]12CCC(=O)C[C@@H]1CC[C@@H]1[C@@H]2CC[C@]2(C)C(c3cccnc3)=CC[C@@H]12 [Ex. 9, 17-(3-Pyridyl)-5α-androst-16-en-3-one]
IC50 (17α-hydroxylase; approx. 4 nM enzyme, A and B ring variations, read-out: IC50 Hydroxylase (Table 2(a))): 4.7 nM

C[C@]12CC[C@H](O)CC1=CC[C@@H]1[C@@H]2CC[C@]2(C)C(c3ccccn3)=CC[C@@H]12 [Example 2-Pyridyl]
concentration required to achieve 50% inhibition of hydroxylase, versus the 3-pyridyl (in words) (17α-hydroxylase): far greater | concentration required to achieve 50% inhibition of lyase, versus the 3-pyridyl (in words) (C17-C20 lyase): far greater

C[C@]12CC[C@H](O)CC1=CC[C@@H]1[C@@H]2CC[C@]2(C)C(Cc3ccccn3)=CC[C@@H]12 [Example 2-picolyl]
concentration required to achieve 50% inhibition of hydroxylase, versus the 3-pyridyl (in words) (17α-hydroxylase): far greater | concentration required to achieve 50% inhibition of lyase, versus the 3-pyridyl (in words) (C17-C20 lyase): far greater

C[C@]12CC[C@H](O)CC1=CC[C@@H]1[C@@H]2CC[C@]2(C)C(c3ccncc3)=CC[C@@H]12 [Example 4-pyridyl]
concentration required to achieve 50% inhibition of hydroxylase, versus the 3-pyridyl (in words) (17α-hydroxylase): far greater | concentration required to achieve 50% inhibition of lyase, versus the 3-pyridyl (in words) (C17-C20 lyase): far greater

CC(=O)N1CCN(c2ccc(OCC3COC(Cn4ccnc4)(c4ccc(Cl)cc4Cl)O3)cc2)CC1 (stereo not shown) [Ketoconazole]
Mean weight ± standard error, Adrenals (Male HWT mice; 0.01 mmol/kg/day i.p.): 4.8 ± 0.2 mg | Mean weight ± standard error, Kidneys (Male HWT mice; 0.01 mmol/kg/day i.p.): 637 ± 22 mg | Mean weight ± standard error, Prostate (Male HWT mice; 0.01 mmol/kg/day i.p.): 9.1 ± 0.8 mg | Mean weight ± standard error, Seminal Vesicles (Male HWT mice; 0.01 mmol/kg/day i.p.): 235 ± 18 mg | Mean weight ± standard error, Testes (Male HWT mice; 0.01 mmol/kg/day i.p.): 141 ± 5 mg | Mean weight ± standard error, Adrenals (Male HWT mice; 0.225 mmol/kg/day i.p.): 6.1 ± 0.3 mg | Mean weight ± standard error, Kidneys (Male HWT mice; 0.225 mmol/kg/day i.p.): 574 ± 23 mg | Mean weight ± standard error, Prostate (Male HWT mice; 0.225 mmol/kg/day i.p.): 10.8 mg | Mean weight ± standard error, Seminal Vesicles (Male HWT mice; 0.225 mmol/kg/day i.p.): 171 ± 5 mg | Mean weight ± standard error, Testes (Male HWT mice; 0.225 mmol/kg/day i.p.): 127 ± 7 mg | Mean weight ± standard error, Adrenals (Male HWT mice; 0.5 mmol/kg/day i.p.): 6.9 ± 0.3 mg | Mean weight ± standard error, Kidneys (Male HWT mice; 0.5 mmol/kg/day i.p.): 710 ± 30 mg | Mean weight ± standard error, Prostate (Male HWT mice; 0.5 mmol/kg/day i.p.): 9.3 ± 0.9 mg | Mean weight ± standard error, Seminal Vesicles (Male HWT mice; 0.5 mmol/kg/day i.p.): 179 ± 20 mg | Mean weight ± standard error, Testes (Male HWT mice; 0.5 mmol/kg/day i.p.): 133 ± 6 mg | effect on adrenal weight (Male HWT mice; two highest doses): increase in adrenal weight | LH (Mean ± standard error) (luteinising hormone; 0.1 mmol/kg/day i.p.): 0.39 ± 0.14 ng/mL | LH (Mean ± standard error) (luteinising hormone; 0.225 mmol/kg/day i.p.): 0.75 ± 0.02 ng/mL | LH (Mean ± standard error) (luteinising hormone; 0.5 mmol/kg/day i.p.): 0.76 ± 0.03 ng/mL | appearance of livers [1]: brown | gut and peritoneal wall, appearance [1]: seemed to be stuck to the seminal vesicles

B1: aromatase (Homo sapiens) (protein)
chain: MVLEMLNPIHYNITSIVPEAMPAATMPVLLLTGLFLLVWNYEGTSSIPGPGYCMGIGPLISHGRFLWMGIGSACNYYNRVYGEFMRVWISGEETLIISKSSSMFHIMKHNHYSSRFGSKLGLQCIGMHEKGIIFNNNPELWKTTRPFFMKALSGPGLVRMVTVCAESLKTHLDRLEEVTNESGYVDVLTLLRRVMLDTSNTLFLRIPLDESAIVVKIQGYFDAWQALLIKPDIFFKISWLYKKYEKSVKDLKDAIEVLIAEKRRRISTEEKLEECMDFATELILAEKRGDLTRENVNQCILEMLIAAPDTMSVSLFFMLFLIAKHPNVEEAIIKEIQTVIGERDIKIDDIQKLKVMENFIYESMRYQPVVDLVMRKALEDDVIDGYPVKKGTNIILNIGRMHRLEFFPKPNEFTLENFAKNVPYRYFQPFGFGPRGCAGKYIAMVMMKAILVTLLRRFHVKTLQGQCVESIQKIHDLSLHPDETKNMLEMIFTPRNSDRCLEH
Km [2]: 0.039 µM
